Source: the supplement of paper PMC10307832

What was measured:
Test in all cases: relative viability (nuclei count vs DMSO), 5 days (fraction); higher = more cells survive
CX-5461 + Dasatinib = compound: Cc1cnc(CNC(=O)c2c(=O)c3ccc(N4CCCN(C)CC4)nc3n3c2sc2ccccc23)cn1 [CX-5461] + Cc1nc(Nc2ncc(C(=O)Nc3c(C)cccc3Cl)s2)cc(N2CCN(CCO)CC2)n1 [Dasatinib] (partner 0.075 µM)
How it was run: (§1)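 Medians of duplicate plates are given as relative viability. That measure is the nuclei count in treated wells divided by the count in vehicle wells. Counts were taken on 4× images of lung cancer cell lines in 1536-well plates, 5 days after pin-tool dosing the day after seeding with one drug alone or a fixed anchor-drug dose plus five library-drug doses (not always all listed) in √10 steps.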

CX-5461 + Pemetrexed = compound: Cc1cnc(CNC(=O)c2c(=O)c3ccc(N4CCCN(C)CC4)nc3n3c2sc2ccccc23)cn1 [CX-5461] + Nc1nc2[nH]cc(CCc3ccc(C(=O)N[C@@H](CCC(=O)O)C(=O)O)cc3)c2c(=O)[nH]1 [Pemetrexed] (partner 0.2 µM)
How it was run: as §1

CX-5461 + Linsitinib = compound: Cc1cnc(CNC(=O)c2c(=O)c3ccc(N4CCCN(C)CC4)nc3n3c2sc2ccccc23)cn1 [CX-5461] + C[C@]1(O)C[C@@H](c2nc(-c3ccc4ccc(-c5ccccc5)nc4c3)c3c(N)nccn32)C1 [Linsitinib] (partner 1 µM)
How it was run: as §1

IMD-0354 + Lapatinib = compound: O=C(Nc1cc(C(F)(F)F)cc(C(F)(F)F)c1)c1cc(Cl)ccc1O [IMD-0354] + CS(=O)(=O)CCNCc1ccc(-c2ccc3ncnc(Nc4ccc(OCc5cccc(F)c5)c(Cl)c4)c3c2)o1 [Lapatinib] (partner 2 µM)
How it was run: as §1

| Cell Line | relative viability (CX-5461 + Dasatinib; first compound 0.01 µM) | relative viability (CX-5461 + Dasatinib; first compound 0.03162 µM) | relative viability (CX-5461 + Dasatinib; first compound 0.1 µM) | relative viability (CX-5461 + Dasatinib; first compound 0.3162 µM) | relative viability (CX-5461 + Dasatinib; first compound 1 µM) | relative viability (CX-5461 + Pemetrexed; first compound 0.01 µM) | relative viability (CX-5461 + Pemetrexed; first compound 0.03162 µM) | relative viability (CX-5461 + Pemetrexed; first compound 0.1 µM) | relative viability (CX-5461 + Pemetrexed; first compound 0.3162 µM) | relative viability (CX-5461 + Pemetrexed; first compound 1 µM) | relative viability (CX-5461 + Linsitinib; first compound 0.01 µM) | relative viability (CX-5461 + Linsitinib; first compound 0.03162 µM) | relative viability (CX-5461 + Linsitinib; first compound 0.1 µM) | relative viability (CX-5461 + Linsitinib; first compound 1 µM) | relative viability (IMD-0354 + Lapatinib; first compound 0.04 µM) | relative viability (IMD-0354 + Lapatinib; first compound 0.1265 µM) | relative viability (IMD-0354 + Lapatinib; first compound 0.4 µM) | relative viability (IMD-0354 + Lapatinib; first compound 1.265 µM) | relative viability (IMD-0354 + Lapatinib; first compound 4 µM) | relative viability (CX-5461 + Linsitinib; first compound 0.3162 µM) |
| --- | --- | --- | --- | --- | --- | --- | --- | --- | --- | --- | --- | --- | --- | --- | --- | --- | --- | --- | --- | --- |
| NCI-H2342 | 0.311 | 0.317 | 0.308 | 0.335 | 0.285 | 0.764 | 0.815 | 0.751 | 0.744 | 0.745 |  |  |  |  |  |  |  |  |  |  |
| LK-2 | 0.258 | 0.229 | 0.251 |  | 0.195 | 0.213 | 0.258 | 0.299 |  | 0.236 | 0.363 | 0.715 | 0.598 | 0.515 | 1.14 | 0.9 | 0.545 | 0.844 | 0.288 |  |
| SK-LU-1 | 0.178 | 0.159 | 0.142 |  | 0.102 | 1.06 | 1.12 | 0.852 | 0.965 | 0.651 | 1.31 | 1.11 | 0.945 | 0.497 | 1.07 | 0.851 | 0.376 | 0.47 | 0.27 | 0.921 |
| HCC-366 | 0.678 | 0.597 | 0.627 | 0.68 | 0.106 | 0.196 | 0.172 | 0.179 | 0.197 | 0.149 | 0.574 | 0.738 | 0.581 | 0.615 | 0.91 | 1.41 | 0.118 | 0.0814 | 0.0302 | 0.573 |
| 201T | 0.652 | 0.555 | 0.537 | 0.542 | 0.477 | 0.324 | 0.302 | 0.329 | 0.318 | 0.318 | 1.05 | 0.995 | 1.03 | 0.993 | 1.07 | 1.08 | 0.827 | 1.04 | 0.333 | 1.02 |
| HCC-827 | 0.346 | 0.277 | 0.349 | 0.35 | 0.298 | 0.292 | 0.253 | 0.268 | 0.225 | 0.331 | 0.901 | 1.01 | 0.999 | 0.957 | 0.195 | 0.187 | 0.186 | 0.168 | 0.145 | 0.946 |
| NCI-H647 | 0.18 | 0.175 | 0.161 | 0.162 | 0.0641 | 0.186 | 0.165 | 0.176 | 0.194 | 0.158 | 1.15 | 1.25 | 1.1 | 0.442 | 1.63 | 0.859 | 0.495 | 0.193 | 0.0984 | 1.25 |
| NCI-H2023 | 0.667 | 0.603 | 0.245 | 0.497 | 0.0768 | 0.218 | 0.246 |  | 0.19 | 0.111 | 0.661 | 0.744 |  | 0.162 | 0.717 | 0.841 | 0.662 | 0.0897 | 0.084 | 0.599 |
| NCI-H520 | 0.164 | 0.165 | 0.199 | 0.166 | 0.203 | 0.719 | 0.725 | 0.708 | 0.608 | 0.484 | 0.877 | 0.916 | 0.934 | 0.701 | 0.932 | 0.792 | 0.46 | 0.197 | 0.197 | 0.889 |
| RERF-LC-KJ | 0.913 | 0.94 | 0.809 | 0.924 | 0.522 | 0.508 | 0.465 | 0.442 | 0.403 | 0.434 | 0.834 | 0.944 | 0.972 | 0.797 | 0.863 | 0.981 | 0.507 | 0.355 | 0.265 | 0.866 |
| A-427 | 0.811 | 0.8 | 0.758 |  | 0.539 | 0.98 | 0.908 | 0.927 | 0.967 | 0.714 | 1.19 | 1.11 | 1.15 | 1.08 | 1.12 | 1.02 | 0.678 | 0.618 | 0.105 |  |
| NCI-H441 | 0.593 | 0.486 | 0.747 | 0.419 | 0.364 | 0.261 | 0.268 | 0.241 | 0.242 | 0.226 | 0.567 | 0.651 | 0.487 | 0.629 |  |  |  |  |  | 0.288 |
| NCI-H1703 |  |  |  |  |  |  |  |  |  |  | 0.374 | 1.22 | 0.898 | 0.423 | 0.936 | 1.03 | 0.475 | 0.202 | 0.21 | 0.223 |
| NCI-H1792 | 0.738 | 0.893 | 0.825 | 0.95 | 0.613 | 0.897 | 0.929 | 0.964 | 1.02 | 0.296 | 0.54 | 0.58 | 0.485 | 0.545 | 0.827 | 0.967 | 0.833 | 0.479 | 0.299 | 0.565 |
| Calu-6 |  |  |  |  |  |  |  |  |  |  | 1.02 | 0.952 | 0.986 | 0.51 | 0.983 | 1.1 | 0.6 | 0.223 | 0.2 | 0.827 |
| SW 1573 | 0.528 | 0.396 | 0.302 | 0.502 | 0.17 | 0.88 | 0.845 | 0.153 | 0.692 | 0.203 | 0.782 | 0.84 | 0.977 | 0.907 | 1.07 | 1.25 | 0.362 | 0.628 | 0.14 | 0.828 |
| PC-3 [JPC-3] | 0.967 | 1.09 | 1.01 | 1.04 | 0.972 | 1.18 |  | 1.11 | 1.15 | 0.86 | 0.937 | 0.885 | 0.933 | 0.918 | 0.484 | 0.434 | 0.372 | 0.42 | 0.199 | 0.936 |
| EMC-BAC-2 | 0.335 | 0.319 | 0.296 | 0.282 | 0.155 | 0.435 | 0.439 | 0.395 | 0.443 | 0.399 | 0.843 | 0.914 | 0.828 | 0.815 | 0.965 | 0.803 | 0.555 | 0.408 | 0.229 | 0.824 |
